Data set [1] is described as follows: Induction of DNA (unknown origin) alkylation assessed as amount remaining of unalkylated test oligonucleotides after 18 hrs by LC/MS/UV analysis. Further details: concentration or dose not given beside the values.
The subject of data set [2] is NCI-H460. As to the kind of experiment: Cytotoxicity against human NCI-H460 cells after 24 hrs under hypoxic condition by luminescence-based Cell-Titer Glo assay. The data set is classed as functional. The conditions noted are these: NCI-H460, 24 h.
Data set [3] relates to NCI-H460. As to the kind of experiment: Cytotoxicity against human NCI-H460 cells after 24 hrs under normoxic condition by luminescence-based Cell-Titer Glo assay. The conditions noted are these: NCI-H460, 24 h.
Data set [4] in a line: Selectivity index, ratio of prodrug IC50 under normoxic condition to prodrug IC50 under hypoxic condition. Type of data set: functional.
A short description of data set [5]: Prodrug activation assessed as recombinant human cytochrome P450-reductase-mediated drug metabolism by measuring (S)-7,8-dimethoxy-2-methylene-2,3-dihydro-1H-benzo[e]pyrrolo[1,2-a][1,4]diazepin-5(11aH)-one level under normoxic condition after 2 hrs by LC-MS analysis. Type of data set: ADME. To be noted: recombinant enzyme.
Data set [6] is described as follows: Prodrug activation assessed as recombinant human cytochrome P450-reductase-mediated drug metabolism by measuring (S)-7,8-dimethoxy-2-methylene-2,3-dihydro-1H-benzo[e]pyrrolo[1,2-a][1,4]diazepin-5(11aH)-one level under hypoxic condition after 2 hrs by LC-MS analysis. Type of data set: ADME. To be noted: recombinant enzyme.
Data set [7] can be described thus: Prodrug activation assessed as recombinant human cytochrome P450-reductase-mediated drug metabolism by measuring (11aS,11a'S)-8,8'-(pentane-1,5-diylbis(oxy))bis(7-methoxy-2-methylene-2,3-dihydro-1H-benzo[e]pyrrolo[1,2-a][1,4]diazepin-5(11aH)-one) level under normoxic condition after 2 hrs by LC-MS analysis. The data set is classed as ADME. The conditions noted are these: recombinant enzyme.

Data set [8] can be described thus: Prodrug activation assessed as recombinant human cytochrome P450-reductase-mediated drug metabolism by measuring (11aS,11a'S)-8,8'-(pentane-1,5-diylbis(oxy))bis(7-methoxy-2-methylene-2,3-dihydro-1H-benzo[e]pyrrolo[1,2-a][1,4]diazepin-5(11aH)-one) level under hypoxic condition after 2 hrs by LC-MS analysis. To be noted: recombinant enzyme. Type of data set: ADME.

Data set [9] in a line: Prodrug activation assessed as recombinant human cytochrome P450-reductase-mediated drug metabolism by measuring (S)-7,8-dimethoxy-2-(quinolin-6-yl)-1H-benzo[e]pyrrolo[1,2-a][1,4]diazepin-5(11aH)-one level under hypoxic condition after 2 hrs by LC-MS analysis. Type of data set: ADME. To be noted: recombinant enzyme.
A short description of data set [10]: Prodrug activation assessed as recombinant human cytochrome P450-reductase-mediated drug metabolism by measuring (S)-7,8-dimethoxy-2-(quinolin-6-yl)-1H-benzo[e]pyrrolo[1,2-a][1,4]diazepin-5(11aH)-one level under normoxic condition after 2 hrs by LC-MS analysis. The data set is classed as ADME. To be noted: recombinant enzyme.

Each structure is given as a SMILES string.

Usually IC50 stands for the concentration at which inhibition is half-maximal. `C=C1C[C@H]2C=Nc3cc(OC)c(OC)cc3C(=O)N2C1`: the Activity in data set [1] worked out at 84%. The IC50 was found to be 273 nM in the data set with NCI-H460 [2] and 550 nM with NCI-H460 [3]. The Ratio IC50 in data set [4] came to 2.
On to `C=C1C[C@H]2C(O)N(C(=O)OCc3cncn3C)c3cc(OC)c(OC)cc3C(=O)N2C1` (some centres not stated), for which the Drug metabolism in [5] and in [6] was 0% throughout.
With `C=C1C[C@H]2C=Nc3cc(OCCCCCOc4cc5c(cc4OC)C(=O)N4CC(=C)C[C@H]4C(O)N5C(=O)OCc4cnc([N+](=O)[O-])n4C)c(OC)cc3C(=O)N2C1` (some centres not stated), the Drug metabolism in data set [7] and in data set [8] was 0% in each case. Besides, the Activity in data set [1] was found to be 92%. Moreover, the IC50 amounted to 1.1 nM in the data set with NCI-H460 [2] and 1.4 nM in the data set on NCI-H460 [3]. For the same molecule, the Ratio IC50 in data set [4] is 1.3.
Take `C=C1C[C@H]2C(O)N(C(=O)OCc3cnc([N+](=O)[O-])n3C)c3cc(OC)c(OC)cc3C(=O)N2C1` (some centres not stated): in [1], the Activity was 100%. Also, the Drug metabolism is recorded as 2% in data set [5] and 100% in data set [6]. Moreover, the IC50 amounted to 35000 nM in the data set on NCI-H460 [2] and 196000 nM in the data set on NCI-H460 [3]. Also, in data set [4], the Ratio IC50 stood at 5.6.
Turning to `C=C1C[C@H]2C=Nc3cc(OCCCCCOc4cc5c(cc4OC)C(=O)N4CC(=C)C[C@H]4C=N5)c(OC)cc3C(=O)N2C1`, in data set [1], the Activity was 42%. Besides, the IC50 worked out at 0.062 nM in the data set with NCI-H460 [2] and 0.092 nM in the data set with NCI-H460 [3]. In addition, the Ratio IC50 in data set [4] stood at 1.5.
Turning to `Cn1c(COP(=O)(NCCBr)NCCBr)cnc1[N+](=O)[O-]` [EVOFOSFAMIDE], the values for the IC50 in the data set with NCI-H460 [2] and in the data set with NCI-H460 [3] were 9.3 nM and 6650 nM, respectively. The Ratio IC50 in data set [4] is 715.
For the molecule `COc1cc2c(cc1OC)N(C(=O)OCc1cnc([N+](=O)[O-])n1C)C(O)[C@@H]1CC(c3ccc4ncccc4c3)=CN1C2=O` (some centres not stated), in data set [1], the Activity amounted to 100%. For the same molecule, the Drug metabolism in [9] was determined as 92%; in data set [10], 5%. The half-inhibitory concentration (IC50) in the data set with NCI-H460 [2] came out at 17 nM; in the data set on NCI-H460 [3], 232 nM. Moreover, the Ratio IC50 in [4] amounted to 13.6.
For the molecule `COc1cc2c(cc1OC)C(=O)N1C=C(c3ccc4ncccc4c3)C[C@H]1C=N2`, the Activity in [1] amounted to 78%. In addition, the values for the IC50 in the data set with NCI-H460 [2] and with NCI-H460 [3] were 0.54 nM and 0.77 nM, respectively. The Ratio IC50 in [4] turned out to be 1.4.
In the case of `C=C1C[C@H]2C=Nc3cc(OCCCCCOc4cc5c(cc4OC)C(=O)N4CC(=C)C[C@H]4C(O)N5C(=O)OCc4cncn4C)c(OC)cc3C(=O)N2C1` (some centres not stated), the Drug metabolism in data set [7] and in data set [8] was 0% throughout.

Values taken from ChEMBL document CHEMBL4177636, “Design, synthesis, and biological evaluation of pyrrolobenzodiazepine-containing hypoxia-activated prodrugs” (Bioorg Med Chem Lett, 2017).
